Here are results for 25 molecules from patent publication US10266513B2 (Pfizer Inc., priority 2012, dated 2019).

The test system of one test is Human B cells. The experiment in a line: Human Primary B Cell Proliferation Assay (3H-thymidine incorporation, anti-human IgM stimulated). In kind it is cell-based. To be noted: B-cell, purified human B cells, 50 μg/mL anti-human IgM F(ab')2, 72 hours. On the procedure: Human Primary B Cell Proliferation Assay
Human B cells were purified from buffy coats using the human B cell RosetteSep kit per manufacturer's instructions. Purified cells were resuspended in RPMI-10% HIFCS, 2 mM L-glutamine, 100 U/mL penicillin, 100 μg/ml streptomycin, incubated with compounds for 1 hour at 37° C. and then stimulated with 50 μg/mL anti-human IgM F(ab′)2 for 72 hours. ^3H-thymidine was included in the culture media for the final 8-16 hours. Cells were harvested and ^3H-thymidine incorporation was measured.
Human B cell Proliferation Assay

Test [1] deals with human full-length BTK Kinase (Homo sapiens (Human), UniProt Q06187). The experiment in a line: Human BTK LanthaScreen Assay (TR-FRET). The class given is biochemical. To be noted: 50 μM ATP, FAM-Srctide peptide substrate, read-out: BTK Inhibition IC50. An excerpt:
Human BTK LanthaScreen Assay

The target of another test is human EGFR kinase domain (Homo sapiens (Human), UniProt P00533). The experiment in a line: Human EGFR LanthaScreen Selectivity Assay (TR-FRET). In kind it is biochemical. To be noted: 20 μM ATP.
human EGFR kinase domain, sequence (P00533 712-979): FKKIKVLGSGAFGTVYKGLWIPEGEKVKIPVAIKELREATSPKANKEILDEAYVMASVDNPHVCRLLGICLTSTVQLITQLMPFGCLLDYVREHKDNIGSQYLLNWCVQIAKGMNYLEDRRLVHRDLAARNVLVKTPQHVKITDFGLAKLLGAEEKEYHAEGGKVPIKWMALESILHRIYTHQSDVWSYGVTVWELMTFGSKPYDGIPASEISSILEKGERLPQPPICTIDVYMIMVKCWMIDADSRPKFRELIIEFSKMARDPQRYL
The next test relates to human whole blood. The experiment in a line: Human Whole Blood Histamine Assay (anti-IgE induced histamine release). In kind it is cell-based. To be noted: heparinized human whole blood, anti-human-IgE 2 μg/ml, histamine release by ELISA, read-out: HWB IC50. As for the experimental part:
Human Whole Blood Histamine Assay
Heparinized human whole blood (200 μl) was plated in 96-well V-bottom assay plates (VWR). Compounds diluted in 100% DMSO (1 μl) were added and incubated at 37° C. for 120 minutes. Anti-human-IgE antibody (KPL) was added to a final concentration of 2 μg/ml and assay plates incubated for 30 minutes at 37° C. Plates were spun at 2000 rpm for 8 minutes and the analyzed for histamine release by ELISA kits (Beckman Coulter).
Inhibition curves and IC50 values are determined using Excel-fit.

Like-named read-outs stand apart in the source and are kept apart here.

human full-length BTK Kinase, sequence (Q06187 whole entry): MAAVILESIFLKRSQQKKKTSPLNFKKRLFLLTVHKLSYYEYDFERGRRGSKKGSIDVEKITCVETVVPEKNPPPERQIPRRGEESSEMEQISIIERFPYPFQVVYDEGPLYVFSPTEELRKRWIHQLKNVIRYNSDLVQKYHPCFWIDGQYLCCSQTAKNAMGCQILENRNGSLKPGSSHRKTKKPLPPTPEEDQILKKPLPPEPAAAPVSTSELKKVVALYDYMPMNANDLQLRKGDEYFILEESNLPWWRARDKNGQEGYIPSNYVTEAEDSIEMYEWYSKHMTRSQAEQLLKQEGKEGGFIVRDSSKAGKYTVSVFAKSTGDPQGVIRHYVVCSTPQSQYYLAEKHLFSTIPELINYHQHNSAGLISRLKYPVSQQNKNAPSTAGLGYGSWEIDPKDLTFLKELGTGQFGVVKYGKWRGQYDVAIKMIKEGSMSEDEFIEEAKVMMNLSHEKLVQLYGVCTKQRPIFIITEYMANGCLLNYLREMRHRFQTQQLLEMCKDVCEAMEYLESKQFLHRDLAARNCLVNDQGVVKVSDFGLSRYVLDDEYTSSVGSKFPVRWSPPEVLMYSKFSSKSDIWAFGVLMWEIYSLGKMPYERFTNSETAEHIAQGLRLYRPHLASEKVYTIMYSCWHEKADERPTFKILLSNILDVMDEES
Protocol for human EGFR kinase domain: The kinase reaction mixtures were incubated at room temperature for 60 minutes before stopping the kinase activity by the addition of 15 mM EDTA. The extent of peptide phosphorylation by EGFR was detected using a Terbium-conjugated anti-phospho-Tyrosine antibody (Tb-PT66 antibody, invitrogen # PV3557).

As for `N#CN1CCCC(n2nc(-c3ccc(Oc4ccccc4)cc3)c(C(N)=O)c2N)C1` (single isomer, unassigned) [Example 2], the concentration for half-maximal inhibition (IC50) turned out to be 0.5 nM with Human B cells, 0.37 nM in test [1], 1710 nM against human EGFR kinase domain and 33.3 nM in the test with human whole blood.
Turning to `N#CN1CCCC(n2nc(-c3ccc(Oc4ccc(Cl)cc4)cc3)c(C(N)=O)c2N)C1` (single isomer, unassigned) [Example 15], the IC50 in the test with Human B cells stood at 1.7 nM; in test [1] it was 0.64 nM; against human EGFR kinase domain it was 3890 nM; in the test on human whole blood, 20.6 nM.
In the case of `C=CC(=O)N1CCC[C@H](n2nc(-c3ccc(Oc4ccccc4)cc3)c(C(N)=O)c2N)C1` [Example 126, 1-[(3S)-1-acryloylpiperidin-3-yl]-5-amino-3-(4-phenoxyphenyl)-1H-pyrazole-4-carboxamide], the results for the IC50 in the test with Human B cells (Homo sapiens), on human EGFR kinase domain and in the test with human whole blood (Homo sapiens) were 20.9 nM, 802 nM and 201 nM, respectively.
Consider `COC/C=C/C(=O)N1CCC[C@@H](n2nc(-c3ccc(Oc4ccc(F)cc4F)cc3)c(C(N)=O)c2N)C1` [Example 138, 5-amino-3-[4-(2,4-difluorophenoxy)phenyl]-1-{(3R)-1-[(2E)-4-methoxybut-2-enoyl]piperidin-3-yl}-1H-pyrazole-4-carboxamide], for which the IC50 in test [1] is 21.8 nM.
Turning to `C=C(C)C(=O)N1CCC[C@@H](n2nc(-c3ccc(Oc4ccc(F)cc4F)cc3)c(C(N)=O)c2N)C1` [Example 139, 5-amino-3-[4-(2,4-difluorophenoxy)phenyl]-1-[(3R)-1-(2-methylacryloyl)piperidin-3-yl]-1H-pyrazole-4-carboxamide], the concentration for half-maximal inhibition (IC50) in test [1] came out at 247 nM.
On to `NC(=O)c1c(-c2ccc(Oc3ccc(F)cc3F)cc2)nn([C@@H]2CCCN(C(=O)/C=C/CCO)C2)c1N` [Example 141, 5-amino-3-[4-(2,4-difluorophenoxy)phenyl]-1-{(3R)-1-[(2E)-5-hydroxypent-2-enoyl]piperidin-3-yl}-1H-pyrazole-4-carboxamide], for which the half-inhibitory concentration (IC50) in test [1] turned out to be 58 nM.
As for `C/C=C/C(=O)N1CCC[C@@H](n2nc(-c3ccc(Oc4ccc(F)cc4F)cc3)c(C(N)=O)c2N)C1` [Example 142, 5-amino-1-{(3R)-1-[(2E)-but-2-enoyl]piperidin-3-yl}-3-[4-(2,4-difluorophenoxy)phenyl]-1H-pyrazole-4-carboxamide], the half-maximal inhibitory concentration (IC50) in test [1] worked out at 61 nM.
Still for that read-out and setting: in the case of `CC/C=C/C(=O)N1CCC[C@@H](n2nc(-c3ccc(Oc4ccc(F)cc4F)cc3)c(C(N)=O)c2N)C1` [Example 143, 5-amino-3-[4-(2,4-difluorophenoxy)phenyl]-1-{(3R)-1-[(2E)-pent-2-enoyl]piperidin-3-yl}-1H-pyrazole-4-carboxamide] it was 125 nM.
As for `NC(=O)c1c(-c2ccc(Oc3ccc(F)cc3F)cc2)nn([C@@H]2CCCN(C(=O)/C=C/C(F)F)C2)c1N` [Example 144, 5-amino-1-{(3R)-1-[(2E)-4,4-difluorobut-2-enoyl]piperidin-3-yl}-3-[4-(2,4-difluorophenoxy)phenyl]-1H-pyrazole-4-carboxamide], the IC50 in the test on Human B cells worked out at 0.84 nM; in test [1] it was 0.41 nM.
For the molecule `NC(=O)c1c(-c2ccc(Oc3ccc(F)cc3F)cc2)nn([C@@H]2CCCN(C(=O)/C(F)=C/CO)C2)c1N` [Example 146, 5-amino-3-[4-(2,4-difluorophenoxy)phenyl]-1-{(3R)-1-[(2Z)-2-fluoro-4-hydroxybut-2-enoyl]piperidin-3-yl}-1H-pyrazole-4-carboxamide], the IC50 in test [1] was determined as 48 nM.
With `CC(C)(O)/C=C/C(=O)N1CCC[C@@H](n2nc(-c3ccc(Oc4ccc(F)cc4F)cc3)c(C(N)=O)c2N)C1` [Example 147, 5-amino-3-[4-(2,4-difluorophenoxy)phenyl]-1-{(3R)-1-[(2E)-4-hydroxy-4-methylpent-2-enoyl]piperidin-3-yl}-1H-pyrazole-4-carboxamide], the IC50 in test [1] stood at 241 nM.
Turning to `C[C@H](O)/C=C/C(=O)N1CCC[C@@H](n2nc(-c3ccc(Oc4ccc(F)cc4F)cc3)c(C(N)=O)c2N)C1` [Example 148, 5-amino-3-[4-(2,4-difluorophenoxy)phenyl]-1-{(3R)-1-[(2E,4S)-4-hydroxypent-2-enoyl]piperidin-3-yl}-1H-pyrazole-4-carboxamide], the IC50 in test [1] is 39 nM.
As for `C[C@@H](O)/C=C/C(=O)N1CCC[C@@H](n2nc(-c3ccc(Oc4ccc(F)cc4F)cc3)c(C(N)=O)c2N)C1` [Example 149, 5-amino-3-(4-(2,4-difluorophenoxy)phenyl)-1-((R)-1-((R,E)-4-hydroxypent-2-enoyl)piperidin-3-yl)-1H-pyrazole-4-carboxamide], the IC50 in test [1] worked out at 52 nM.
On to `C=C(F)C(=O)N1CCC[C@@H](n2nc(-c3ccc(Oc4ccc(F)cc4F)cc3)c(C(N)=O)c2N)C1` [Example 150, 5-amino-3-[4-(2,4-difluorophenoxy)phenyl]-1-[(3R)-1-(2-fluoroacryloyl)piperidin-3-yl]-1H-pyrazole-4-carboxamide], for which the IC50 in test [1] came out at 5.3 nM.
Regarding `N#C/C=C/C(=O)N1CCC[C@@H](n2nc(-c3ccc(Oc4ccc(F)cc4F)cc3)c(C(N)=O)c2N)C1` [Example 152, 5-amino-1-{(3R)-1-[(2E)-3-cyanoprop-2-enoyl]piperidin-3-yl}-3-[4-(2,4-difluorophenoxy)phenyl]-1H-pyrazole-4-carboxamide], the IC50 in test [1] worked out at 1.5 nM.
For `C=CC(=O)N1CCC[C@@H](n2nc(-c3ccc(Oc4ncc(Cl)cc4F)cc3)c(C(N)=O)c2N)C1` [Example 153, 1-[(3R)-1-acryloylpiperidin-3-yl]-5-amino-3-{4-[(5-chloro-3-fluoropyridin-2-yl)oxy]phenyl}-1H-pyrazole-4-carboxamide], the values for the IC50 (in the test with Human B cells; in test [1]) were 0.56 nM and 0.48 nM, respectively.
On to `NC(=O)c1c(-c2ccc(Oc3ncc(Cl)cc3F)cc2)nn([C@@H]2CCCN(C(=O)/C=C/CO)C2)c1N` [Example 154, 5-amino-3-{4-[(5-chloro-3-fluoropyridin-2-yl)oxy]phenyl}-1-{(3R)-1-[(2E)-4-hydroxybut-2-enoyl]piperidin-3-yl}-1H-pyrazole-4-carboxamide], for which the 50% inhibitory concentration (IC50) in test [1] turned out to be 49 nM.
`NC(=O)c1c(-c2ccc(Oc3ncc(Cl)cc3F)cc2)nn([C@@H]2CCCN(C(=O)/C=C/C(F)F)C2)c1N` [Example 155, 5-amino-3-{4-[(5-chloro-3-fluoropyridin-2-yl)oxy]phenyl}-1-{(3R)-1-[(2E)-4,4-difluorobut-2-enoyl]piperidin-3-yl}-1H-pyrazole-4-carboxamide]: the results for the 50% inhibitory concentration (IC50) (in the test on Human B cells; in test [1]; against human EGFR kinase domain) were 2 nM, 0.7 nM and 106 nM, respectively.
As to `NC(=O)c1c(-c2ccc(Oc3ncc(Cl)cc3F)cc2)nn([C@@H]2CCCN(C(=O)/C=C/CF)C2)c1N` [Example 156, 5-amino-3-{4-[(5-chloro-3-fluoropyridin-2-yl)oxy]phenyl}-1-{(3R)-1-[(2E)-4-fluorobut-2-enoyl]piperidin-3-yl}-1H-pyrazole-4-carboxamide], the IC50 stood at 2.5 nM in the test with Human B cells, 1.4 nM in test [1] and 381 nM on human EGFR kinase domain.
With `NC(=O)c1c(-c2ccc(Oc3ccc(Cl)cn3)cc2)nn([C@@H]2CCCN(C(=O)/C=C/C(F)F)C2)c1N` [Example 159, 5-amino-3-{4-[(5-chloropyridin-2-yl)oxy]phenyl}-1-{(3R)-1-[(2E)-4,4-difluorobut-2-enoyl]piperidin-3-yl}-1H-pyrazole-4-carboxamide], the half-maximal inhibitory concentration (IC50) with Human B cells is 2.8 nM; in test [1], 1.3 nM; at human EGFR kinase domain, 311 nM.
Consider `NC(=O)c1c(-c2ccc(Oc3ccc(Cl)cn3)cc2)nn(C2CCCN(C(=O)/C=C/CF)C2)c1N` (stereo not shown) [Example 160], for which the values for the 50% inhibitory concentration (IC50) (with Human B cells; in test [1]; against human EGFR kinase domain) were 2.9 nM, 5.5 nM and 890 nM, respectively.
Consider `NC(=O)c1c(-c2ccc(Oc3cccc(C(F)(F)F)n3)cc2)nn([C@@H]2CCCN(C(=O)/C=C/C(F)F)C2)c1N` [Example 163, 5-amino-1-{(3R)-1-[(2E)-4,4-difluorobut-2-enoyl]piperidin-3-yl}-3-(4-{[6-(trifluoromethyl)pyridin-2-yl]oxy}phenyl)-1H-pyrazole-4-carboxamide], for which the half-maximal inhibitory concentration (IC50) in the test on Human B cells was found to be 0.92 nM; in test [1], 1.3 nM.
As to `NC(=O)c1c(-c2ccc(Oc3cccc(C(F)(F)F)n3)cc2)nn([C@@H]2CCCN(C(=O)/C=C/CF)C2)c1N` [Example 164, 5-amino-1-{(3R)-1-[(2E)-4-fluorobut-2-enoyl]piperidin-3-yl}-3-(4-{[6-(trifluoromethyl)pyridin-2-yl]oxy}phenyl)-1H-pyrazole-4-carboxamide], the IC50 was found to be 11.4 nM in the test with Human B cells, 3.2 nM in test [1] and 3360 nM on human EGFR kinase domain.
As to `C=C(F)C(=O)N1CCC[C@@H](n2nc(-c3ccc(Oc4cccc(C(F)(F)F)n4)cc3)c(C(N)=O)c2N)C1` [Example 165], the half-inhibitory concentration (IC50) in test [1] stood at 4.4 nM.
Take `N#C/C=C/C(=O)N1CCC[C@@H](n2nc(-c3ccc(Oc4cccc(C(F)(F)F)n4)cc3)c(C(N)=O)c2N)C1` [Example 166, 5-amino-1-{(3R)-1-[(2E)-3-cyanoprop-2-enoyl]piperidin-3-yl}-3-(4-{[6-(trifluoromethyl)pyridin-2-yl]oxy}phenyl)-1H-pyrazole-4-carboxamide]: the IC50 in test [1] came to 2.2 nM.
